Reference: ChEMBL document CHEMBL1134996, “Non-peptide alpha(v)beta(3) antagonists. Part 5: identification of potent RGD mimetics incorporating 2-aryl beta-amino acids as aspartic acid replacements” (Bioorg Med Chem Lett, 2002)

Legend:
Integrin alpha-V/beta-3 = Integrin alpha-V/beta-3 (Homo sapiens, UniProt P05106+P06756); test: Inhibition of binding to human integrin receptor alpha V beta3; type: protein-complex assay
[1] = Clearance after oral and iv dosing in dogs; type: ADME, organism-based, Canis lupus familiaris; details: dog, in vivo, read-out: CI
[2] = Bioavailability in dog; type: ADME, organism-based, Canis lupus familiaris; details: in vivo

Integrin alpha-V/beta-3, sequence (P05106 27-788 limits assumed): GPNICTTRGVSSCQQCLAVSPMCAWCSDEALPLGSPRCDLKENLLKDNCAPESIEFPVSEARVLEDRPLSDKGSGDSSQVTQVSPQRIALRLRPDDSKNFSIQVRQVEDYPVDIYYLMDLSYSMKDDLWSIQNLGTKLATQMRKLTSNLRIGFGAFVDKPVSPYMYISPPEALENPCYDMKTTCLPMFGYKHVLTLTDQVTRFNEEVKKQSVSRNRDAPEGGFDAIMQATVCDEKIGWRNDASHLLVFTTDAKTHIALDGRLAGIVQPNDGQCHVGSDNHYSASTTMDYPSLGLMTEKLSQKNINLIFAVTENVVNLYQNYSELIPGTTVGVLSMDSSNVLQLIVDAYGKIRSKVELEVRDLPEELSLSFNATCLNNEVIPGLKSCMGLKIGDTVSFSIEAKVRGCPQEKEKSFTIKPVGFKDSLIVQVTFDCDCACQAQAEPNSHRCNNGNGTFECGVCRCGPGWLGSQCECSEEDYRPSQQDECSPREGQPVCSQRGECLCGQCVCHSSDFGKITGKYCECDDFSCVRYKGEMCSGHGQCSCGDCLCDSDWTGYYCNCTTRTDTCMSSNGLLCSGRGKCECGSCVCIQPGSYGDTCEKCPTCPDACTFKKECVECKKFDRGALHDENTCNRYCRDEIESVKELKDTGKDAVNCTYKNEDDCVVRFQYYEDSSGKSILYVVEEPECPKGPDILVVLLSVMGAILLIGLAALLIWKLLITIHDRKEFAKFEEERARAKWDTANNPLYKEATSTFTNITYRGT
Integrin alpha-V/beta-3, sequence (P06756 31-889 limits assumed): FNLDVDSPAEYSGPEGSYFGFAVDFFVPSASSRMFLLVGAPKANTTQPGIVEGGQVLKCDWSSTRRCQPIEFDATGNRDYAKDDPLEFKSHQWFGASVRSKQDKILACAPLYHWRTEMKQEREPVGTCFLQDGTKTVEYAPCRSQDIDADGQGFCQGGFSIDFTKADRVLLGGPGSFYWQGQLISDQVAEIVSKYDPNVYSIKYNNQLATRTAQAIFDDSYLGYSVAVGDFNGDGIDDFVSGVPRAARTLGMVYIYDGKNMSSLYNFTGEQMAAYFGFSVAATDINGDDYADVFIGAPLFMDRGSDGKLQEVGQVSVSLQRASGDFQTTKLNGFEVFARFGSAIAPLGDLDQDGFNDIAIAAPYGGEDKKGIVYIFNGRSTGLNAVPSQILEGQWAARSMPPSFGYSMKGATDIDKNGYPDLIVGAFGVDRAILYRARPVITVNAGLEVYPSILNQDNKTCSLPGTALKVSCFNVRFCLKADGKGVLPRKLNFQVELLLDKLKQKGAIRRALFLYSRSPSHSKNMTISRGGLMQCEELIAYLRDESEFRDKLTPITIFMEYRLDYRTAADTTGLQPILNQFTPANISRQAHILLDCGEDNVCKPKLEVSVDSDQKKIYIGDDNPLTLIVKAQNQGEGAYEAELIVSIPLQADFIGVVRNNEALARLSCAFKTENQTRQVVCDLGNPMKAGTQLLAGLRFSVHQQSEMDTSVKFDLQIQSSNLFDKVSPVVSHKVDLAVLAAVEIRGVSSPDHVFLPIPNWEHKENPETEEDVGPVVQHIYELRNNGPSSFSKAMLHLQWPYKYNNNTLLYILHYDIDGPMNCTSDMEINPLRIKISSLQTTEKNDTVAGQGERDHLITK
Integrin alpha-V/beta-3, sequence (P06756 891-1048 limits assumed): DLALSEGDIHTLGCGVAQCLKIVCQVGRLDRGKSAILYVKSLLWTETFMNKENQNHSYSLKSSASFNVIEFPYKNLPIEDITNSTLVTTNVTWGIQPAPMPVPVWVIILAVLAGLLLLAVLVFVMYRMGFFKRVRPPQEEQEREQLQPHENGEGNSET

## CN(CC(C(=O)O)c1ccc2c(c1)OCC2)C(=O)CCCCc1nc2c(cc1C1CC1)CCCN2 (stereo not given)
Integrin alpha-V/beta-3
  IC50: 0.49 nM

## O=C(O)C[C@H](NC(=O)CCCCc1ccc2c(n1)NCCC2)c1ccccc1
Integrin alpha-V/beta-3
  IC50: 84 nM

## O=C(O)C[C@H](NC(=O)CCCCc1ccc2c(n1)NCCC2)c1cnc2ccccc2c1
Integrin alpha-V/beta-3
  IC50: 1.07 nM

## O=C(CCCCc1ccc2c(n1)NCCC2)NCC(C(=O)O)c1ccccc1 (stereo not given)
Integrin alpha-V/beta-3
  IC50: 57.4 nM

## CN(CC(C(=O)O)c1ccc2c(c1)OCC2)C(=O)CCCCc1ccc2c(n1)NCCC2 (stereo not given)
Integrin alpha-V/beta-3
  IC50: 0.74 nM

## O=C(CCC1CCc2cc3c(nc2C1)NCCC3)NCC(C(=O)O)c1ccc2c(c1)OCC2 (stereo not given)
[1]
  clearance: 18.9 mL/min/kg
Integrin alpha-V/beta-3
  IC50: 0.72 nM
[2]
  bioavailability: 1.1%

## O=C(CCCCc1ccc2c(n1)NCCC2)NCC(C(=O)O)c1ccc2c(c1)OCC2 (stereo not given)
[1]
  clearance: 6.6 mL/min/kg
Integrin alpha-V/beta-3
  IC50: 1.01 nM
[2]
  bioavailability: 47%

## O=C(CCCCc1nc2c(cc1C1CC1)CCCN2)NCC(C(=O)O)c1ccc2c(c1)OCC2 (stereo not given)
[1]
  clearance: 13.7 mL/min/kg
Integrin alpha-V/beta-3
  IC50: 0.29 nM
[2]
  bioavailability: 40%

## O=C(O)C[C@H](NC(=O)CCCCc1ccc2c(n1)NCCC2)c1ccc2c(c1)OCC2
[1]
  clearance: 2 mL/min/kg

## O=C(CCCCc1ccc2c(n1)NCCC2)NCC(C(=O)O)c1cccc(F)c1 (stereo not given)
Integrin alpha-V/beta-3
  IC50: 10.9 nM

## O=C(CCCCc1ccc2c(n1)NCCC2)NCC(C(=O)O)c1cnc2ccccc2c1 (stereo not given)
Integrin alpha-V/beta-3
  IC50: 0.82 nM

## CN(CC(C(=O)O)c1ccc2c(c1)OCC2)C(=O)CCC1CCc2cc3c(nc2C1)NCCC3 (stereo not given)
[1]
  clearance: 10.3 mL/min/kg
Integrin alpha-V/beta-3
  IC50: 0.35 nM
[2]
  bioavailability: 18%
